Test results taken from patent US7786164B2, “Lipophilic di(anticancer drug) compounds, compositions, and related methods” (Sonus Pharmaceuticals, Inc., priority 2005, dated 2010).
Read-outs that look alike come from different tables or passages of the source.

How the values were obtained:
Format in all cases: cell-based
[1] = tested on: SKOV-3 (ovarian) cancer cell line; experiment: In vitro cytotoxicity (GI50), Sulforhodamine B staining, SKOV-3; conditions: Homo sapiens, read-out: Drug concentration that produces 50% cell growth inhibition (GI50), SKOV-3 (OVARIAN)
Protocol: (§1) In this example, the in vitro cytotoxicity, as measured by GI50 (50% of growth inhibition) values, was determined for representative lipophilic di(anticancer drug) compounds of the invention. The GI50 values of sebacate bis(7-ethylcamptothecin-10-yl)ester, sebacate bis(camptothecin-20-yl)ester, sebacate bis(paclitaxel-2′-yl)ester, and sebacate bis(docetaxel-2′-yl)ester, were measured in the following cancer cell lines: NCI-H460 (non-small cell lung), MDA-MB-231 (breast), […] (colon), and SKOV-3 (ovarian).
(§2) The study was performed using a solution of the lipophilic di(anticancer drug) compounds in DMSO (1 mM) diluted in the corresponding cell media. The cells were in contact with varying concentrations of the drug for a period of 48 hours. At the end of 48 hours, staining with Sulforhodamine B was performed to determine the number of viable cells and calculate the degree of cellular growth inhibition as compared to a control group.

[2] = tested on: MDA-MB-231 (breast) cancer cell line; experiment: In vitro cytotoxicity (GI50), Sulforhodamine B staining, MDA-MB-231; conditions: Homo sapiens, read-out: Drug concentration that produces 50% cell growth inhibition (GI50), MDA-MB-231 (BREAST)
Protocol: as §1, §2

[3] = tested on: NCI-H460 (non-small cell lung) cancer cell line; experiment: In vitro cytotoxicity (GI50), Sulforhodamine B staining, NCI-H460; conditions: Homo sapiens, read-out: Drug concentration that produces 50% cell growth inhibition (GI50), H460 (NSCLC)
Protocol: as §1, §2

[4] = tested on: HCT-116 (colon) cancer cell line; experiment: In vitro cytotoxicity (GI50), Sulforhodamine B staining, HCT-116; conditions: Homo sapiens, read-out: Drug concentration that produces 50% cell growth inhibition (GI50), HCT-116 (COLON)
Protocol: as §1, §2

[5] = SK-OV-3, SKOV-3 (ovarian) cells, 48 hours contact, Sulforhodamine B
[6] = MDA-MB-231 (breast) cells, 48 hours contact, Sulforhodamine B
[7] = NCI-H460, H460 (NSCLC) cells, 48 hours contact, Sulforhodamine B
[8] = HCT-116 (colon) cells, 48 hours contact, Sulforhodamine B

Compound	GI50 ([1]; SK-OV-3, 48 h) [nM]	GI50 ([2]; MDA-MB-231, 48 h) [nM]	GI50 ([3]; NCI-H460, 48 h) [nM]	GI50 ([4]; HCT-116, 48 h) [nM]	GI50 [1, 5] [nM]	GI50 [2, 6] [nM]	GI50 [3, 7] [nM]	GI50 [4, 8] [nM]
CCc1c2c(nc3ccc(OC(=O)CCCCCCCCC(=O)Oc4ccc5nc6c(c(CC)c5c4)Cn4c-6cc5c(c4=O)COC(=O)[C@]5(O)CC)cc13)-c1cc3c(c(=O)n1C2)COC(=O)[C@]3(O)CC [sebacate bis(7-ethylcamptothecin-10-yl), decanedioic acid bis[(4S)-4,11-diethyl-3,4,12,14-tetrahydro-4-hydroxy-3,14-dioxo-1H-pyrano[3′,4′:6,7]indolizino[1,2-b]quinolin-9-yl]ester]	8.53	303	3.03	4.58	–	–	–	–
CC[C@@]1(OC(=O)CCCCCCCCC(=O)O[C@]2(CC)C(=O)OCc3c2cc2n(c3=O)Cc3cc4ccccc4nc3-2)C(=O)OCc2c1cc1n(c2=O)Cc2cc3ccccc3nc2-1 [sebacate bis(camptothecin-20-yl)ester, decanedioic acid bis[(4S)-4-ethyl-3,4,12,14-tetrahydro-3,14-dioxo-1H-pyrano[3′,4′:6,7]indolizino[1,2-b]quinolin-4-yl]ester]	–	–	–	–	8540	9250	3150	849
CC(=O)O[C@@]12CO[C@@H]1C[C@H](O)[C@@]1(C)C(=O)[C@H](O)C3=C(C)[C@@H](OC(=O)[C@H](OC(=O)CCCCCCCCC(=O)O[C@@H](C(=O)O[C@H]4C[C@@]5(O)[C@@H](OC(=O)c6ccccc6)[C@@H]6[C@]7(OC(C)=O)CO[C@@H]7C[C@H](O)[C@@]6(C)C(=O)[C@H](O)C(=C4C)C5(C)C)[C@@H](NC(=O)OC(C)(C)C)c4ccccc4)[C@@H](NC(=O)OC(C)(C)C)c4ccccc4)C[C@@](O)([C@@H](OC(=O)c4ccccc4)[C@H]21)C3(C)C [sebacate bis(docetaxel-2′-yl)ester, decanedioic acid bis[(1R,2S)-1-[[[(2aR,4S,4aS,6R,9S,11S,12S,12aR,12bS)-12b-(acetyloxy)-12-(benzoyloxy)-2a,3,4,4a,5,6,9,10,11,12,12a,12b-dodecahydro-4,6,11-trihydroxy-4a,8,13,13-tetramethyl-5-oxo-7,11-methano-1H-cyclodeca[3,4]benz[1,2-b]oxet-9-yl]oxy]carbonyl]-2-[[(1,1-dimethylethoxy)carbonyl]amino]-2-phenylethyl]ester]	–	–	–	–	135	111	16.7	20.9
CC(=O)O[C@H]1C(=O)[C@@]2(C)[C@H]([C@H](OC(=O)c3ccccc3)[C@]3(O)C[C@H](OC(=O)[C@H](OC(=O)CCCCCCCCC(=O)O[C@@H](C(=O)O[C@H]4C[C@@]5(O)[C@@H](OC(=O)c6ccccc6)[C@@H]6[C@]7(OC(C)=O)CO[C@@H]7C[C@H](O)[C@@]6(C)C(=O)[C@H](OC(C)=O)C(=C4C)C5(C)C)[C@@H](NC(=O)c4ccccc4)c4ccccc4)[C@@H](NC(=O)c4ccccc4)c4ccccc4)C(C)=C1C3(C)C)[C@]1(OC(C)=O)CO[C@@H]1C[C@@H]2O [sebacate bis(paclitaxel-2′-yl)ester, decanedioic acid bis[(1R,2S)-2-(benzoylamino)-1-[[[(2aR,4S,4aS,6R,9S,11S,12S,12aR,12bS)-6,12b-bis(acetyloxy)-12-(benzoyloxy)-2a,3,4,4a,5,6,9,10,11,12,12a, 12b-dodecahydro-4,11-dihydroxy-4a,8,13,13-tetramethyl-5-oxo-7,11-methano-1H-cyclodeca[3,4]benz[1,2-b]oxet-9-yl]oxy]carbonyl]-2-phenylethyl]ester]	40.2	84.3	83.2	39.9	–	–	–	–
